pEC50: −log10 of the molar value.

The test system of test [1] is Z-138 cells. Description: Z-138 Proliferation Assay (Cell Titer Glo, 5 days). The test is classed as cell-based. The note with it: Homo sapiens, Table D-2. The method, boiled down:
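Exponentially growing Z-138 cells (10,000 cells/ml) in RPMI 1640 with 10% FBS are exposed to nine-point 3-fold dilutions (final top concentration 20 μM, 0.2% DMSO) for 5 days at 37° C. Viability is measured as ATP by CellTiter-Glo luminescence. The 50% inhibitory concentration comes from a 4-parameter fit.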
(In ATP-based viability assays light output follows the ATP content of the culture.)

Test [2] has as its system Z-138 cells. Description: Z-138 Methylation Assay (In Cell Western for symmetric di-methyl arginine and DNA content). The note with it: Homo sapiens, Table D-2, read-out: ICW EC50. Type of test: cell-based. The method, boiled down:
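Z-138 cells at 50,000 cells/mL exposed to compound 96 h at 37 °C, then attached to poly-D-lysine plates, fixed with paraformaldehyde and probed with anti-symmetric di-methyl arginine plus DRAQ5 DNA stain. 800/700 nm ratio normalized to DMSO and 3 μM reference controls; IC50 from triplicate wells.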

With `O=C(Nc1cccc(OCC(O)CN2CCc3ccccc3C2)c1)c1cncnc1` (centres unmarked) [Compound D161], the pEC50 in the test with Z-138 cells [1] is less than 4.70; with Z-138 cells [2], 5.00 to 6.00.
Consider `Cn1ccc(C(=O)Nc2cccc(OCC(O)CN3CCc4ccccc4C3)c2)n1` (centres unmarked) [Compound D162], for which the pEC50 in the test with Z-138 cells [1] is less than 4.70; with Z-138 cells [2], 5.00 to 6.00.
For `OC(COc1cccc(-c2ccc3cnoc3c2)c1)CN1CCc2ccccc2C1` (centres unmarked) [Compound D166], the results for the negative logarithm of the EC50 (pEC50) with Z-138 cells [1] and with Z-138 cells [2] were less than 4.70 and 4.40 to 5.00, respectively.
The corresponding values for `OC(COc1cccc(-c2ccccc2Oc2ccccc2)c1)CN1CCc2ccccc2C1` (centres unmarked) [Compound D167] are less than 4.70 and 5.00 to 6.00.
The matching figures for `COc1ccc(-c2cccc(OCC(O)CN3CCc4ccccc4C3)c2)cc1Cl` (centres unmarked) [Compound D168]: less than 4.70 and 4.40 to 5.00.
For the compound `CC(=O)Nc1cccc(-c2cccc(OCC(O)CN3CCc4ccccc4C3)c2)c1` (centres unmarked) [Compound D169], the figures for the pEC50 in the test with Z-138 cells [1] and with Z-138 cells [2] were less than 4.70 and 6.00 to 7.00, respectively.
The corresponding values for `OC(COc1cccc(-c2csc3ccccc23)c1)CN1CCc2ccccc2C1` (centres unmarked) [Compound D170] are less than 4.70 and 5.00 to 6.00.
As for `NC(=O)c1cccc(-c2cccc(OCC(O)CN3CCc4ccccc4C3)c2)c1` (centres unmarked) [Compound D171], the results for the pEC50 in the test with Z-138 cells [1] and in the test with Z-138 cells [2] were less than 4.70 and 5.00 to 6.00, respectively.
The matching figures for `N#Cc1cccc(-c2cccc(OCC(O)CN3CCc4ccccc4C3)c2)c1` (centres unmarked) [Compound D172]: less than 4.70 and 5.00 to 6.00.
The corresponding values for `Cn1cnc2ccc(-c3cccc(OC[C@H](O)CN4CCc5ccccc5C4)c3)cc21` [Compound D174] are 5.00 to 6.00 and 6.00 to 7.00.
The matching figures for `Cn1ccc2ccc(-c3cccc(OCC(O)CN4CCc5ccccc5C4)c3)nc21` (centres unmarked) [Compound D176]: less than 4.70 and 6.00 to 7.00.
Consider `COC(=O)c1cncc(-c2cccc(OCC(O)CN3CCc4ccccc4C3)c2)c1` (centres unmarked) [Compound D180], for which the negative logarithm of the EC50 (pEC50) in the test on Z-138 cells [1] and in the test with Z-138 cells [2] was less than 4.70 in each case.
As for `CNC(=O)c1cncc(-c2cccc(OCC(O)CN3CCc4ccccc4C3)c2)c1` (centres unmarked) [Compound D182], the pEC50 in the test with Z-138 cells [1] is less than 4.70; with Z-138 cells [2], 5.00 to 6.00.
Regarding `Cn1cnc(C(=O)Nc2cccc(OCC(O)CN3CCc4ccccc4C3)c2)c1` (centres unmarked) [Compound D183], the negative-log EC50 (pEC50) was less than 4.70 with Z-138 cells [1] and 5.00 to 6.00 in the test with Z-138 cells [2].
The matching figures for `O=C(c1cccc(-c2cccc(OCC(O)CN3CCc4ccccc4C3)c2)c1)N1CCCC1` (centres unmarked) [Compound D185]: 4.40 to 5.00 and 5.00 to 6.00.
The matching figures for `CNC(=O)c1cccc(-c2cccc(OCC(O)CN3CCc4ccccc4C3)c2)c1` (centres unmarked) [Compound D186]: less than 4.70 and 5.00 to 6.00.
The matching figures for `Cc1cn(C)c2cc(-c3cccc(OCC(O)CN4CCc5ccccc5C4)c3)ccc12` (centres unmarked) [Compound D187]: less than 4.70 and 5.00 to 6.00.
Regarding `OC(COc1cccc(-c2ccc3ncoc3c2)c1)CN1CCc2ccccc2C1` (centres unmarked) [Compound D188], the negative logarithm of the EC50 (pEC50) is 4.40 to 5.00 with Z-138 cells [1] and 5.00 to 6.00 in the test with Z-138 cells [2].
The matching figures for `Cn1cnc2ccc(-c3cccc(OCC(O)CN4CCc5ccccc5C4)c3)nc21` (centres unmarked) [Compound D189]: 6.00 to 7.00 and 6.00 to 7.00.
The matching figures for `Cn1cnc2cnc(-c3cccc(OCC(O)CN4CCc5ccccc5C4)c3)nc21` (centres unmarked) [Compound D191]: 5.00 to 6.00 and 6.00 to 7.00.
The matching figures for `Cn1cnc2ccc(-c3cncc(NCC(O)CN4CCc5ccccc5C4)c3)cc21` (centres unmarked) [Compound D199]: 5.00 to 6.00 and more than 7.00.
For the compound `OC(COc1cccc(-c2cc(OC(F)(F)F)ccc2Cl)c1)CN1CCc2ccccc2C1` (centres unmarked) [Compound D200], the pEC50 with Z-138 cells [1] is less than 4.70; with Z-138 cells [2], 4.40 to 5.00.
Regarding `CC(C)Oc1ccc(F)c(-c2cccc(OCC(O)CN3CCc4ccccc4C3)c2)c1` (centres unmarked) [Compound D201], the pEC50 in the test with Z-138 cells [1] was less than 4.70; with Z-138 cells [2], 5.00 to 6.00.
For the compound `Cn1ncc2ccc(-c3cc(NCC(O)CN4CCc5ccccc5C4)ncn3)cc21` (centres unmarked) [Compound D205], the negative-log EC50 (pEC50) is less than 4.70 in the test with Z-138 cells [1] and 6.00 to 7.00 in the test on Z-138 cells [2].
The corresponding values for `Cn1cnc2ccc(-c3cc(NCC(O)CN4CCc5ccccc5C4)ncn3)cc21` (centres unmarked) [Compound D207] are 5.00 to 6.00 and 6.00 to 7.00.

As a reminder, the pEC50 is the negative decadic logarithm of the EC50, by convention in mol/L.

The values above are taken from patent publication US20150344457A1, “METHODS OF INHIBITING PRMT5” (EPIZYME, INC., priority 2012, published 2015).
